Test results as given in the supplement of paper PMC8617591.

Legend:
[1] = test system: Mycobacterium tuberculosis Erdman (autoluminescent); assay: GRinf, maximum normalised growth rate inhibition (three-drug combination) (unitless (-1 to 1)); higher = less effect (negative = killing)
Method: (§1)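 DiaMOND equipotent three-drug combination dose responses (10 doses, 1.5- or 2-fold spacing, centred on IC90) against autoluminescent M. tuberculosis Erdman in 8 in vitro models. Read-out is OD600, or luminescence for the intracellular and dormancy models, normalised to untreated wells. Hill-fit Einf, AUC25 and GRinf are potency metrics; FIC50 and FIC90 are total Loewe fractional inhibitory concentrations as log2 (negative = synergy).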

[2] = test system: Mycobacterium tuberculosis Erdman (autoluminescent); assay: AUC25, normalised area under dose response up to IC25 (three-drug combination) (fraction (0-1)); higher = more potent at low dose
Method: as §1

[3] = test system: Mycobacterium tuberculosis Erdman (autoluminescent); assay: Einf, fitted maximum growth inhibition of three-drug combination (fraction); higher = stronger maximal inhibition
Method: as §1

[4] = test system: Mycobacterium tuberculosis Erdman (autoluminescent); assay: total FIC50 (Loewe) at 50% inhibition, three-drug combination (log2); higher = more antagonistic
Method: as §1

[5] = test system: Mycobacterium tuberculosis Erdman (autoluminescent); assay: total FIC90 (Loewe) at 90% inhibition, three-drug combination (log2); higher = more antagonistic
Method: as §1

CC(C)/N=c1\cc2n(-c3ccc(Cl)cc3)c3ccccc3nc-2cc1Nc1ccc(Cl)cc1 [clofazimine] + CC[C@@H](CO)NCCN[C@@H](CC)CO [ethambutol] + NC(=O)c1cnccn1 [pyrazinamide]
Settings | AUC25, [2] | Einf, [3] | GRinf, [1] | total FIC50, [4] | total FIC90, [5]
in vitro model: acidic pH 5.7, time point: constant (~7 days, model-specific) | 0.112 | 0.725 | -0.183 | -0.812 | –
in vitro model: acidic pH 5.7, time point: terminal (~4-5 doublings, model-specific) | 0.0918 | 0.954 | -0.232 | 0.156 | -0.781
in vitro model: intracellular J774, time point: constant = terminal | – | 1 | -0.398 | – | -0.408

Settings | AUC25, [2] | Einf, [3] | GRinf, [1] | total FIC50, [4] | total FIC90, [5]
in vitro model: butyrate, time point: constant (~7 days, model-specific) | 0.1 | 0.913 | -0.122 | -0.0529 | –
in vitro model: butyrate, time point: terminal (~4-5 doublings, model-specific) | 0.075 | 0.953 | -0.0327 | 0.0941 | -0.127
in vitro model: cholesterol 0.05 mM, time point: constant (~7 days, model-specific) | 0.147 | 0.758 | -0.487 | – | –
in vitro model: cholesterol 0.05 mM, time point: terminal (~4-5 doublings, model-specific) | 0.123 | 0.86 | -0.157 | 1.39 | –
in vitro model: cholesterol-high 0.2 mM, time point: constant (~7 days, model-specific) | 0.1 | 0.955 | -0.718 | 0.509 | –
in vitro model: cholesterol-high 0.2 mM, time point: terminal (~4-5 doublings, model-specific) | 0.0851 | 0.998 | -0.902 | 0.581 | 0.758
in vitro model: dormancy (butyrate + nitrate, low O2), time point: constant (~7 days, model-specific) | 0.0979 | 0.826 | 0.349 | -0.344 | –
in vitro model: dormancy (butyrate + nitrate, low O2), time point: terminal (~4-5 doublings, model-specific) | 0.124 | 0.999 | -0.842 | 0.325 | 1.52
in vitro model: standard 7H9 glycerol, time point: constant = terminal | 0.109 | 0.939 | -0.163 | 0.315 | –
in vitro model: valerate, time point: constant (~7 days, model-specific) | 0.117 | 0.792 | 0.253 | 0.627 | –
in vitro model: valerate, time point: terminal (~4-5 doublings, model-specific) | 0.0625 | 0.898 | 0.205 | 0.395 | –

CC(C)/N=c1\cc2n(-c3ccc(Cl)cc3)c3ccccc3nc-2cc1Nc1ccc(Cl)cc1 [clofazimine] + CC[C@@H](CO)NCCN[C@@H](CC)CO [ethambutol] + NNC(=O)c1ccncc1 [isoniazid]
Settings | AUC25, [2] | Einf, [3] | GRinf, [1] | total FIC50, [4] | total FIC90, [5]
in vitro model: acidic pH 5.7, time point: constant (~7 days, model-specific) | 0.0868 | 0.732 | -0.0169 | 0.498 | –
in vitro model: acidic pH 5.7, time point: terminal (~4-5 doublings, model-specific) | 0.0876 | 0.955 | -0.0829 | 0.678 | 0.618
in vitro model: intracellular J774, time point: constant = terminal | – | 0.988 | -0.375 | – | -0.505

Settings | AUC25, [2] | Einf, [3] | GRinf, [1] | total FIC50, [4] | total FIC90, [5]
in vitro model: butyrate, time point: constant (~7 days, model-specific) | 0.0914 | 0.946 | -0.098 | 0.523 | –
in vitro model: butyrate, time point: terminal (~4-5 doublings, model-specific) | 0.0804 | 0.976 | -0.12 | 0.504 | 0.513
in vitro model: cholesterol 0.05 mM, time point: constant (~7 days, model-specific) | 0.117 | 0.751 | -0.165 | 0.257 | –
in vitro model: cholesterol 0.05 mM, time point: terminal (~4-5 doublings, model-specific) | 0.126 | 0.852 | -0.135 | 1.57 | –
in vitro model: cholesterol-high 0.2 mM, time point: constant (~7 days, model-specific) | 0.0601 | 0.951 | -0.518 | 0.899 | –
in vitro model: cholesterol-high 0.2 mM, time point: terminal (~4-5 doublings, model-specific) | 0.0945 | 0.998 | -0.932 | 0.577 | 0.985
in vitro model: dormancy (butyrate + nitrate, low O2), time point: constant (~7 days, model-specific) | 0.0906 | 0.807 | 0.507 | 0.0627 | –
in vitro model: dormancy (butyrate + nitrate, low O2), time point: terminal (~4-5 doublings, model-specific) | 0.132 | 0.998 | -0.444 | -0.121 | 0.753
in vitro model: standard 7H9 glycerol, time point: constant = terminal | 0.118 | 0.954 | -0.121 | -0.209 | –
in vitro model: valerate, time point: constant (~7 days, model-specific) | 0.128 | 0.873 | 0.0565 | 0.974 | –
in vitro model: valerate, time point: terminal (~4-5 doublings, model-specific) | 0.0871 | 0.919 | 0.0494 | 0.446 | -0.137

CC(C)/N=c1\cc2n(-c3ccc(Cl)cc3)c3ccccc3nc-2cc1Nc1ccc(Cl)cc1 [clofazimine] + CC[C@@H](CO)NCCN[C@@H](CC)CO [ethambutol] + O=[N+]([O-])c1cn2c(n1)OC[C@@H](OCc1ccc(OC(F)(F)F)cc1)C2 [pretomanid]
Settings | AUC25, [2] | Einf, [3] | GRinf, [1] | total FIC50, [4] | total FIC90, [5]
in vitro model: acidic pH 5.7, time point: constant (~7 days, model-specific) | 0.129 | 0.803 | -0.436 | 0.449 | –
in vitro model: acidic pH 5.7, time point: terminal (~4-5 doublings, model-specific) | 0.0966 | 0.954 | -0.21 | 0.46 | 0.859
in vitro model: intracellular J774, time point: constant = terminal | – | 0.987 | -0.321 | – | -1.25

Settings | AUC25, [2] | Einf, [3] | GRinf, [1] | total FIC50, [4] | total FIC90, [5]
in vitro model: butyrate, time point: constant (~7 days, model-specific) | 0.103 | 0.962 | -0.142 | 0.411 | –
in vitro model: butyrate, time point: terminal (~4-5 doublings, model-specific) | 0.0799 | 0.981 | -0.138 | 0.442 | 0.382
in vitro model: cholesterol 0.05 mM, time point: constant (~7 days, model-specific) | 0.136 | 0.718 | -0.577 | – | –
in vitro model: cholesterol 0.05 mM, time point: terminal (~4-5 doublings, model-specific) | 0.131 | 0.84 | -0.0173 | 2.15 | –
in vitro model: cholesterol-high 0.2 mM, time point: constant (~7 days, model-specific) | 0.102 | 0.928 | -0.371 | 1.08 | –
in vitro model: cholesterol-high 0.2 mM, time point: terminal (~4-5 doublings, model-specific) | 0.0873 | 0.994 | -0.857 | 0.97 | 1.51
in vitro model: dormancy (butyrate + nitrate, low O2), time point: constant (~7 days, model-specific) | 0.106 | 0.824 | 0.446 | -0.084 | –
in vitro model: dormancy (butyrate + nitrate, low O2), time point: terminal (~4-5 doublings, model-specific) | 0.127 | 0.99 | -0.258 | -0.114 | 0.801
in vitro model: standard 7H9 glycerol, time point: constant = terminal | 0.126 | 0.956 | -0.273 | -0.284 | –
in vitro model: valerate, time point: constant (~7 days, model-specific) | 0.14 | 0.867 | -0.308 | 0.805 | –
in vitro model: valerate, time point: terminal (~4-5 doublings, model-specific) | 0.0932 | 0.92 | 0.0599 | 0.355 | 0.973
